Results as given in ChEMBL document CHEMBL4616655, “Kalparinol, a Salvialane (Isodaucane) Sesquiterpenoid Derived from Native Australian Dysphania Species That Suggests a Putative Biogenetic Link to Zerumbone” (J Nat Prod, 2020).
Activity calls are given as the source filed them. The rule behind the calls is not given here.

What was measured:
[1] = system: CAL-27; assay: Cytotoxicity against human CAL27 cells assessed as reduction in cell viability after 6 days by SRB assay; format: functional, cell-based
[2] = system: SCC-15; assay: Cytotoxicity against human SCC15 cells assessed as reduction in cell viability after 6 days by SRB assay; format: functional, cell-based
[3] = system: SCC-9; assay: Cytotoxicity against human SCC9 cells assessed as reduction in cell viability after 6 days by SRB assay; format: functional, cell-based
[4] = system: FaDu; assay: Cytotoxicity against human FADU cells assessed as reduction in cell viability after 6 days by SRB assay; format: functional, cell-based
[5] = system: SCC-25; assay: Cytotoxicity against human SCC25 cells assessed as reduction in cell viability after 6 days by SRB assay; format: functional, cell-based
[6] = system: MM96L; assay: Cytotoxicity against human MM96L cells assessed as reduction in cell viability after 6 days by SRB assay; format: functional, cell-based
[7] = system: NFF; assay: Cytotoxicity against human NFF cells assessed as reduction in cell viability after 6 days by SRB assay; format: cell-based; settings: 144 h
[8] = system: MCF7; assay: Cytotoxicity against human MCF7 cells assessed as reduction in cell viability after 6 days by SRB assay; format: functional, cell-based
[9] = system: Pichia kudriavzevii; assay: Antifungal activity against Pichia kudriavzevii ATCC 6258 assessed as reduction in microbial growth up to 200 uM incubated for 24 to 48 hrs; format: functional, organism-based
[10] = system: [Candida] auris; assay: Antifungal activity against Candida auris CBS 12373 assessed as reduction in microbial growth up to 200 uM incubated for 24 to 48 hrs; format: functional, organism-based; settings: Candidozyma auris
[11] = system: Candida albicans; assay: Antifungal activity against Candida albicans ATCC 90028 assessed as reduction in microbial growth up to 200 uM incubated for 24 to 48 hrs; format: functional, organism-based
[12] = system: [Candida] auris; assay: Antifungal activity against Candida auris CBS 10913 assessed as reduction in microbial growth up to 200 uM incubated for 24 to 48 hrs; format: functional, organism-based; settings: Candidozyma auris
[13] = system: Nakaseomyces glabratus; assay: Antifungal activity against Candida glabrata ATCC 90030 assessed as reduction in microbial growth up to 200 uM incubated for 24 to 48 hrs; format: functional, organism-based
[14] = Stability of compound in DMSO; format: physicochemical

For `C/C1=C\CC[C@@]2(C)O[C@@H]2CC(C)(C)/C=C/C1=O` [ZERUMBONE EPOXIDE], the Activity [1] was “inactive”, the Activity [2] was “inactive” and the Activity [3] was “inactive”. The Activity [4] was “inactive”, the Activity [5] was “inactive” and the Activity [6] was “inactive”. The Activity [7] was “Non-Toxic” and the Activity [8] was “inactive”.
With `C/C1=C/CC[C@@]2(C)O[C@@H]2CC(C)(C)/C=C/C1=O` the Activity [1] was “inactive”, the Activity [9] was “inactive” and the Activity [10] was “inactive”. The Activity [2] was “inactive”, the Activity [3] was “inactive” and the Activity [4] was “inactive”. The Activity [11] was “inactive”, the Activity [5] was “inactive” and the Activity [12] was “inactive”. For the same compound, the Activity [6] was “inactive”, the Activity [13] was “inactive” and the Activity [7] was “Non-Toxic”. The Activity [8] was “inactive”.
With `C[C@@H]1CCC[C@@]2(C)[C@H](C1=O)[C@@H](C(C)(C)O)C[C@@H]2O` the Stability [14] was “Unstable”.
